Results from paper PMC11374673, “Discovery of isoquinoline sulfonamides as allosteric gyrase inhibitors with activity against fluoroquinolone-resistant bacteria” (Nature Chemistry, 2024).
Converted amounts (≈) assume the structure as drawn. “And” between values parts separate entries of the source, which are not always exact repeats. Equal values may be shown once. “Also recorded” adds a separate entry of the source.

Tests used:
[1] = test system: K. pneumoniae ATCC 29665; test: MIC by broth microdilution; type: cell-based, Klebsiella pneumoniae; conditions: Klebsiella pneumoniae, ATCC29665, broth microdilution; read-out: MIC K. pneumoniae ATCC 29665
Summary of the method: (§1)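 Exponential-phase cultures (OD600 0.5, 37 °C aerobic), diluted 100-fold in CAMHB, were added to twofold compound dilution series. Keio strains grown with 50 µg ml^−1 kanamycin. Plates incubated overnight at 37 °C, shaking at 600 r.p.m.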

[2] = test system: E. coli W3110; test: MIC by broth microdilution; type: cell-based, Escherichia coli; conditions: for MIC: Escherichia coli, W3110, WT, broth microdilution, read-out: MIC E. coli W3110; for antimicrobial activity: relative to parent compound
Summary of the method: as §1

[3] = test system: HepG2; test: Cytotoxicity assay (MTT); type: cell-based, human; conditions: for IC50: MTT, 24 h
Procedure: (§2) HepG2 (ATCC HB-8065) and HEK293T (ATCC CRL-3216) cell lines were cultured at 37 °C and 7% CO2 in Dulbecco’s modified Eagle medium (Sigma-Aldrich, D6546) with GlutaMax, penicillin (100 µg ml^−1), streptomycin (100 µg ml^−1) and 10% fetal calf serum. Cells were passaged twice a week by first detaching using 0.05% trypsin in phosphate-buffered saline (PBS) and then diluting to appropriate confluence. Compound cytotoxicity was evaluated using the standard (3-(4,5-dimethylthiazol-2-yl)-2,5-diphenyltetrazolium bromide (MTT) assay protocol (MTT assay protocol for cell viability and proliferation, Merck) with slight changes. HepG2 and HEK293T cells were seeded at a density of 1.5 × 10^4 cells per well in a clear 96-well tissue culture treated plate in a final volume of 100 µl in Dulbecco’s modified Eagle medium, supplemented with fetal bovine serum (1%), GlutaMax and penicillin/streptomycin. Cells were incubated for 24 h at 37 °C, 7% CO2 to allow cells to attach to the plates. […] Incubation was done for 24 h at 37 °C, 7% CO2. After the incubation, MTT was added to each well at a final concentration of 0.40 mg ml^−1. The plates were then incubated for 2 h at 37 °C, 7% CO2. Medium was carefully removed via suction, and purple formazan crystals were resuspended in 100 µl DMSO. Absorbance was read at 570 nm using a Clariostar plate reader with MARS (V4.20). The data were then analysed with GraphPad Prism software. IC50 values were calculated using non-linear fitted curve with variable slope settings, with values adjusted for background (plotted absorbance (ABS)sample = (ABSsample – ABSbackground) / (ABSvehicle – ABSbackground)). Technical triplicates for each condition were used, along with biological duplicates.

[4] = test system: HEK293T; test: Cytotoxicity assay (MTT); type: cell-based, human; conditions: for MTT data (raw readout): HEK293T; for IC50: Homo sapiens, HEK-293T, 24 h, MTT
Procedure: as §2

[5] = HepG2, 0.023 uM, experiment n = 1, technical triplicates
[6] = HepG2, 0.023 uM, experiment n = 2, technical triplicates
[7] = HepG2, 0.068 uM, experiment n = 1, technical triplicates
[8] = HepG2, 0.068 uM, experiment n = 2, technical triplicates
[9] = HepG2, 0.21 uM, experiment n = 1, technical triplicates
[10] = HepG2, 0.21 uM, experiment n = 2, technical triplicates
[11] = HepG2, 0.62 uM, experiment n = 1, technical triplicates
[12] = HepG2, 0.62 uM, experiment n = 2, technical triplicates
[13] = HepG2, 1.85 uM, experiment n = 1, technical triplicates
[14] = HepG2, 1.85 uM, experiment n = 2, technical triplicates
[15] = HepG2, 5.6 uM, experiment n = 1, technical triplicates
[16] = HepG2, 5.6 uM, experiment n = 2, technical triplicates
[17] = HepG2, 16.7 uM, experiment n = 1, technical triplicates
[18] = HepG2, 16.7 uM, experiment n = 2, technical triplicates
[19] = 0.023 uM, experiment n = 1, technical triplicates
[20] = 0.023 uM, experiment n = 2, technical triplicates
[21] = 0.068 uM, experiment n = 1, technical triplicates
[22] = 0.068 uM, experiment n = 2, technical triplicates
[23] = 0.21 uM, experiment n = 1, technical triplicates
[24] = 0.21 uM, experiment n = 2, technical triplicates
[25] = 0.62 uM, experiment n = 1, technical triplicates
[26] = 0.62 uM, experiment n = 2, technical triplicates
[27] = 1.85 uM, experiment n = 1, technical triplicates
[28] = 1.85 uM, experiment n = 2, technical triplicates
[29] = 5.6 uM, experiment n = 1, technical triplicates
[30] = 5.6 uM, experiment n = 2, technical triplicates
[31] = 16.7 uM, experiment n = 1, technical triplicates
[32] = 16.7 uM, experiment n = 2, technical triplicates
[33] = 50 uM, experiment n = 1, technical triplicates

MIC [1] [µM]	MIC [2] [µM]	SMILES	MTT data (raw readout) [3, 6]	MTT data (raw readout) [3, 7]	MTT data (raw readout) [3, 8]	MTT data (raw readout) [3, 9]	MTT data (raw readout) [3, 10]	MTT data (raw readout) [3, 11]	MTT data (raw readout) [3, 12]	MTT data (raw readout) [3, 13]	MTT data (raw readout) [3, 14]	IC50 ([3]; Homo sapiens, HepG2, 24 h) [µM]	MTT data (raw readout) [4, 19]	MTT data (raw readout) [4, 20]	MTT data (raw readout) [4, 21]	MTT data (raw readout) [4, 22]	MTT data (raw readout) [4, 23]	MTT data (raw readout) [4, 24]	MTT data (raw readout) [4, 25]	MTT data (raw readout) [4, 26]	further results
12.5 (≈ 5.53 µg/mL)	6.25 (≈ 2.77 µg/mL)	N#Cc1ccc(-c2ccc(CNCCNS(=O)(=O)c3cccc4cnccc34)cc2)cc1 [Compound 63]	0.611 and 0.614 and 0.593	0.510 and 0.515 and 0.533	0.570 and 0.587 and 0.633	0.498 and 0.524 and 0.534	0.605 and 0.658 and 0.657	0.497 and 0.566 and 0.560	0.617 and 0.653 and 0.661	0.544 and 0.508 and 0.538	0.697 and 0.634 and 0.669	38	0.901 and 1.153 and 1.291	0.788 and 0.714 and 0.753	1.230 and 1.606	0.880 and 0.788	1.126 and 1.263 and 1.301	0.786 and 0.824 and 0.781	1.516 and 1.537 and 1.418	0.850 and 0.846 and 0.825	MTT data (raw readout) [3, 5]: 0.543 and 0.530 and 0.509; MTT data (raw readout) [3, 15]: 0.597 and 0.586 and 0.658; MTT data (raw readout) [3, 16]: 0.663 and 0.721 and 0.746; MTT data (raw readout) [3, 17]: 0.547 and 0.517 and 0.544; MTT data (raw readout) [3, 18]: 0.629 and 0.671 and 0.616; MTT data (raw readout) [4, 27]: 1.143 and 1.250 and 1.118; MTT data (raw readout) [4, 28]: 0.775 and 0.761 and 0.773; MTT data (raw readout) [4, 29]: 1.050 and 1.130 and 1.181; MTT data (raw readout) [4, 30]: 0.666 and 0.667 and 0.723; MTT data (raw readout) [4, 31]: 0.577 and 0.585 and 0.499; MTT data (raw readout) [4, 32]: 0.403 and 0.407 and 0.398; MTT data (raw readout) [4, 33]: 0.057 and 0.055 and 0.049; IC50 [4]: 14.7 µM
12.5 (≈ 5.68 µg/mL)	6.25 (≈ 2.84 µg/mL)	O=S(=O)(NCCNCc1ccc(-c2ccc(F)nc2)c(F)c1)c1cccc2cnccc12 [Compound 89]	0.940 and 0.892 and 0.823	1.059 and 1.047 and 0.930	0.912 and 0.982 and 0.829	1.201 and 1.007 and 1.154	0.862 and 0.878 and 0.892	0.908 and 1.012 and 1.031	0.861 and 0.862 and 0.848	0.964 and 0.831 and 0.983	0.918 and 0.866 and 0.845	6.8	1.460 and 1.327 and 1.155	1.578 and 1.464 and 1.567	1.383 and 1.285 and 1.405	1.657 and 1.634 and 1.543	1.422 and 1.388 and 1.379	1.511 and 1.515 and 1.445	1.302 and 1.254 and 1.287	1.280 and 1.339 and 1.417	MTT data (raw readout) [3, 5]: 1.211 and 1.032 and 1.095; MTT data (raw readout) [3, 15]: 0.840 and 0.880 and 0.890; MTT data (raw readout) [3, 16]: 0.798 and 0.838 and 0.803; MTT data (raw readout) [4, 27]: 1.134 and 1.184 and 1.193; MTT data (raw readout) [4, 28]: 1.303 and 1.294 and 1.289; MTT data (raw readout) [4, 29]: 0.891 and 0.915 and 0.826; MTT data (raw readout) [4, 30]: 0.987 and 0.926 and 0.889; MTT data (raw readout) [4, 31]: 0.240 and 0.299 and 0.212; MTT data (raw readout) [4, 32]: 0.285 and 0.310 and 0.251; IC50 [4]: 8.9 µM
12.5 (≈ 5.78 µg/mL)	3.1 (≈ 1.43 µg/mL)	O=S(=O)(NC[C@@H]1CC[C@H](c2ccc(-c3ccc(F)nc3)cc2)N1)c1cccc2cnccc12 [Compound 96]	0.335 and 0.356 and 0.336	0.697 and 0.415 and 0.444	0.314 and 0.274 and 0.280	0.410 and 0.391 and 0.401	0.286 and 0.328 and 0.321	0.318 and 0.339 and 0.325	0.277 and 0.335 and 0.337	0.449 and 0.459 and 0.475	0.324 and 0.290 and 0.321	> 100	1.310 and 1.426 and 1.382	1.005 and 1.055 and 0.974	1.261 and 1.196 and 1.228	1.060 and 1.105 and 1.114	1.460 and 1.332 and 1.292	0.944 and 1.021 and 1.022	1.285 and 1.264 and 1.255	0.998 and 0.945 and 0.948	antimicrobial activity [2]: twofold increase in potency; also recorded: active; MTT data (raw readout) [3, 15]: 0.376 and 0.380 and 0.428; MTT data (raw readout) [3, 16]: 0.305 and 0.314 and 0.321; MTT data (raw readout) [3, 17]: 0.356 and 0.341 and 0.324; MTT data (raw readout) [3, 18]: 0.281 and 0.283 and 0.288; MTT data (raw readout) ([3]; HepG2, 50 uM, experiment n = 1, technical triplicates): 0.302 and 0.347 and 0.370; MTT data (raw readout) ([3]; HepG2, 50 uM, experiment n = 2, technical triplicates): 0.208 and 0.219 and 0.229; IC50 [3]: > 50 µM; MTT data (raw readout) [4, 27]: 1.253 and 1.307 and 1.121; MTT data (raw readout) [4, 28]: 0.889 and 0.884 and 0.825; MTT data (raw readout) [4, 29]: 0.992 and 0.906 and 1.276; MTT data (raw readout) [4, 30]: 0.770 and 0.750 and 0.744; MTT data (raw readout) [4, 31]: 0.263 and 0.250 and 0.238; MTT data (raw readout) [4, 32]: 0.552 and 0.449 and 0.479; MTT data (raw readout) [4, 33]: 0.081 and 0.067 and 0.062; MTT data (raw readout) ([4]; 50 uM, experiment n = 2, technical triplicates): 0.360 and 0.319 and 0.325; IC50 [4]: 22 µM
25 (≈ 11.6 µg/mL)	12.5 (≈ 5.78 µg/mL)	O=S(=O)(NC[C@H]1CC[C@H](c2ccc(-c3ccc(F)nc3)cc2)N1)c1cccc2cnccc12 [Compound 97]	0.270 and 0.220 and 0.207	0.289 and 0.307 and 0.326	0.263 and 0.259 and 0.236	0.296 and 0.298 and 0.289	0.257 and 0.247 and 0.226	0.322 and 0.321 and 0.315	0.242 and 0.234	0.327 and 0.348 and 0.347	0.240 and 0.213	> 100	1.365 and 1.275 and 1.431	0.941 and 0.907 and 1.040	1.367 and 1.278 and 1.395	0.968 and 0.952 and 1.040	1.452 and 1.196 and 1.181	0.930 and 0.987 and 0.817	1.160 and 1.204 and 1.255	0.874 and 0.902 and 0.863	antimicrobial activity [2]: fourfold less active; also recorded: reduced activity; MTT data (raw readout) [3, 5]: 0.311 and 0.313 and 0.321; IC50 [3]: > 50 µM; MTT data (raw readout) [4, 27]: 1.307 and 1.173 and 1.284; MTT data (raw readout) [4, 28]: 0.763 and 0.774 and 0.841; IC50 [4]: 39 µM
